# Patent publication US3982931A, “N,N-di-sec.butyl-benzamide herbicides” (priority 1967, dated 1976)
# Experiments:
# setaria glauca L. = test: herbicidal activity, soil treatment one day after sowing; format: in vivo
# From the text: (§1) The infesting species and the agrarian species have been indicated in Table 1 by letters, as follows:
# (§2) Method of evaluation of the results (of tests):
# (§3) 1 slight differences with respect to the control;
# (§4) 3 = considerable activity with damages that definitely impair the further development of most of the small plants; an activity degree already useful for practical purposes;
# (§5) 4 = maximum of activity with lack of germination or total containment of the small plants in the emerging stage.
# In the case of an intermediate activity between two classes of the scale, both values are recorded with the one which corresponds to the preeminent activity preceding. […]
# (§6) TABLE 3 reports data on the herbicidal activity against infesting herbs, while TABLE 4 reports data concerning the activity on useful species of agricultural cultivations. These tables employ the criterion explained previously. […]
# pisum sativum L. (pea) = test: activity on agrarian species, soil treatment one day after sowing; format: in vivo; details: in vivo
# From the text: as §1
# L = pisum sativum L. (pea)
# as §2
# (§7) 0 = no activity and no difference with respect to the control;
# as §3, §4, §5
# (§8) In the case of an intermediate activity between two classes of the scale, both values are recorded with the one which corresponds to the preeminent activity preceding.
# (§9) TABLE 2 reports the activity data of other compounds that fall within the class which is the object of this invention.
# as §6
# avena sativa (oats) = test: as above; format: in vivo, Avena sativa L.; details: in vivo
# From the text: as §1, §2, §7, §3, §4, §5, §8, §9
# (§10) TABLE 3 reports data on the herbicidal activity against infesting herbs, while TABLE 4 reports data concerning the activity on useful species of agricultural cultivations. These tables employ the criterion explained previously. The product was spread on the soil one day after sowing, in quantities of 1, 3, 6, 8, 10, 12 and 14 kg/ha.
# [1] = system: phaseolus vulgaris (bean); test: as above; format: in vivo, Phaseolus vulgaris L.; details: in vivo
# From the text: as §1
# I = phaseolus vulgaris (bean)
# as §2, §7, §3, §4, §5, §8, §9, §10
# [2] = system: amaranthus retroflexus L.; test: herbicidal activity, soil treatment one day after sowing; format: in vivo
# From the text: as §1
# A = amaranthus retroflexus L.
# as §2, §3, §4, §5, §8, §9, §6
# chenopodium album L. = test: as above; format: in vivo
# From the text: as §1, §2, §3, §4, §5, §8, §9, §6
# artemisia vulgaris L. = test: as above; format: in vivo
# From the text: as §1
# B = artemisia vulgaris L.
# as §2, §3, §4, §5, §8, §9, §6
# [3] = system: echinocloa crus-galli R.S.; test: as above; format: in vivo
# From the text: as §1
# D = echinocloa crus-galli R.S.
# as §2, §3, §4, §5, §8, §9, §6
# zea mais L. (corn) = test: activity on agrarian species, soil treatment one day after sowing; format: in vivo; details: in vivo
# From the text: as §1, §2, §7, §3, §4, §5, §8, §9, §10
# vicia sativa L. = test: herbicidal activity, soil treatment one day after sowing; format: in vivo
# From the text: as §1, §2, §3, §4, §5, §8, §9
# oryza sativa L. (rice) = test: activity on agrarian species, soil treatment one day after sowing; format: in vivo; details: in vivo
# From the text: as §1
# P = oryza sativa L. (rice)
# as §2, §7, §3, §4, §5, §8, §9, §10
Structure (SMILES),"activity on E, 0-4 scale (setaria glauca L.; 6 kg/ha)","activity on A, 0-4 scale ([2]; 6 kg/ha)","activity on C, 0-4 scale (chenopodium album L.; 6 kg/ha)","activity on B, 0-4 scale (artemisia vulgaris L.; 6 kg/ha)","activity on D, 0-4 scale ([3]; 6 kg/ha)","activity on F, 0-4 scale (vicia sativa L.; 6 kg/ha)",other results
"CCC(C)N(C(=O)c1ccc(C)c(C)c1)C(C)CC (stereo not drawn) [PA233, 3,4-dimethyl-N,N-di-sec.butyl-benzamide]",4,2-3,2,2,4,0,"activity on E, 0-4 scale (setaria glauca L.; 2 kg/ha): 3; activity on E, 0-4 scale (setaria glauca L.; 4 kg/ha): 3-4; activity on L, 0-4 scale (pisum sativum L. (pea)): 0; activity on G, 0-4 scale (avena sativa (oats)): 0; activity on I, 0-4 scale [1]: 0; activity on D, 0-4 scale ([3]; 2 kg/ha): 2-3; activity on D, 0-4 scale ([3]; 4 kg/ha): 3; activity on O, 0-4 scale (zea mais L. (corn)): 0"
"O=C(O)c1cc(Cl)cc(Cl)c1Cl [PA304, 2,3,5-trichloro-benzoic acid, reference compound]",0,1,0,1,0,3,
"CCC(C)N(C(=O)c1ccc(F)c(Br)c1)C(C)CC (stereo not drawn) [PA518, 3-bromo,4-fluoro-N,N-di-sec.butyl-benzamide]",4,2,3,3,3-4,0,
"CCCCN(CCCC)C(=O)c1ccc(Cl)c(Cl)c1 [PA105, 3,4-dichloro-N,N-di-n.butyl-benzamide, reference compound]",2,1-2,1,1-2,1,0-1,"activity on E, 0-4 scale (setaria glauca L.; 3 kg/ha): 1; activity on C, 0-4 scale (chenopodium album L.; 3 kg/ha): 0-1; activity on B, 0-4 scale (artemisia vulgaris L.; 3 kg/ha): 0-1; activity on D, 0-4 scale ([3]; 3 kg/ha): 0-1; activity on F, 0-4 scale (vicia sativa L.; 3 kg/ha): 0"
"CCC(C)N(C(=O)c1cccc(Cl)c1)C(C)CC (stereo not drawn) [PA215, 3-chloro-N,N-di-sec.butyl-benzamide]",3,1-2,1-2,1-2,3,1-2,"activity on G, 0-4 scale (avena sativa (oats)): 0; activity on I, 0-4 scale [1]: 0; activity on P, 0-4 scale (oryza sativa L. (rice)): 0; activity on O, 0-4 scale (zea mais L. (corn)): 0"
"CCC(C)N(C(=O)c1ccc(Br)c(I)c1)C(C)CC (stereo not drawn) [PA619, 3-iodo,4-bromo-N,N-di-sec.butyl-benzamide]",3,0-1,0-1,0,3,0,
"CCCCN(CCCC)C(=O)c1ccc(Cl)cc1Cl [PA282, 2,4-dichloro-N,N-di-n.butyl-benzamide, reference compound]",1,2,2,0,1,0-1,
"CCC(C)N(C(=O)c1ccc(Br)c(Br)c1)C(C)CC (stereo not drawn) [PA484, 3,4-dibromo-N,N-di-sec.butyl-benzamide]",4-3,2-3,2,2-3,3-4,0,"activity on E, 0-4 scale (setaria glauca L.; 4 kg/ha): 3; activity on A, 0-4 scale ([2]; 4 kg/ha): 1-2; activity on C, 0-4 scale (chenopodium album L.; 4 kg/ha): 1; activity on B, 0-4 scale (artemisia vulgaris L.; 4 kg/ha): 1; activity on D, 0-4 scale ([3]; 4 kg/ha): 3; activity on F, 0-4 scale (vicia sativa L.; 4 kg/ha): 0"
"CCCN(CCC)C(=O)c1cc(Cl)cc(Cl)c1Cl [PA303, 2,3,5-trichloro-N,N-di-n. propyl-benzamide, reference compound]",4,3,,1,4,0-1,"activity on E, 0-4 scale (setaria glauca L.; 1 kg/ha): 1-2; activity on E, 0-4 scale (setaria glauca L.; 2 kg/ha): 3; activity on L, 0-4 scale (pisum sativum L. (pea)): 1; activity on A, 0-4 scale ([2]; 1 kg/ha): 1; activity on A, 0-4 scale ([2]; 4 kg/ha): 2-3; activity on C, 0-4 scale (chenopodium album L.; 1 kg/ha): 1; activity on C, 0-4 scale (chenopodium album L.; 2 kg/ha): 1; activity on C, 0-4 scale (chenopodium album L.; 4 kg/ha): 1-2; activity on P, 0-4 scale (oryza sativa L. (rice)): 3; activity on B, 0-4 scale (artemisia vulgaris L.; 1 kg/ha): 1; activity on B, 0-4 scale (artemisia vulgaris L.; 2 kg/ha): 1; activity on B, 0-4 scale (artemisia vulgaris L.; 4 kg/ha): 1; activity on D, 0-4 scale ([3]; 1 kg/ha): 1-2; activity on D, 0-4 scale ([3]; 4 kg/ha): 3-4; activity on F, 0-4 scale (vicia sativa L.; 1 kg/ha): 0; activity on F, 0-4 scale (vicia sativa L.; 2 kg/ha): 0; activity on F, 0-4 scale (vicia sativa L.; 4 kg/ha): 0-1"
"CCC(C)N(C(=O)c1c(Cl)cc(Cl)cc1Cl)C(C)CC (stereo not drawn) [PA633, 2,4,6-trichloro-N,N-di-sec.butyl-benzamide]",4,2,2-3,2-3,4,0,
"CCN(CC)C(=O)c1cccc(C)c1 [PA383, 3,methyl-N,N-diethyl-benzamide, reference compound]",0-1,2,2,3,0-1,2,
"CCC(C)N(C(=O)c1cc(Cl)ccc1Br)C(C)CC (stereo not drawn) [PA504, 2-bromo,5-chloro-N,N-di-sec.butyl-benzamide]",4,2,2,1-2,3-4,0-1,"activity on E, 0-4 scale (setaria glauca L.; 2 kg/ha): 2-3; activity on E, 0-4 scale (setaria glauca L.; 3 kg/ha): 3; activity on E, 0-4 scale (setaria glauca L.; 4 kg/ha): 3-4; activity on D, 0-4 scale ([3]; 2 kg/ha): 2-3; activity on D, 0-4 scale ([3]; 3 kg/ha): 2-3; activity on D, 0-4 scale ([3]; 4 kg/ha): 3"
"Cc1cccc(C(=O)O)c1 [PA442, 3,methyl-benzoic acid, reference compound]",0,1,0,0,0,0,
"CC(C)CN(CC(C)C)C(=O)c1cccc(Br)c1 [PA521, 3-bromo-N,N-di-isobutyl-benzamide, reference compound]",1-2,1,1,1,1-2,0,
"O=C(O)c1cccc(Cl)c1 [PA439, 3,chloro-benzoic acid, reference compound]",0,0,0,0,0,0,
